Data taken from publication PMC8466755, “GPCR Pharmacological Profiling of Aaptamine from the Philippine Sponge Stylissa sp. Extends Its Therapeutic Potential for Noncommunicable Diseases” (Molecules, 2021).
Entries after “also recorded” stand apart in the source; their conditions may differ.

Columns and labels:
[1] = molecular target: delta opioid receptor (δ-OR, OPRD1); set-up: method as in PMID 27744679; details: calcium mobilization pathway; read-out: EC50 agonist, delta opioid receptor; cited from earlier work
α-adrenoreceptor = system: α-adrenoreceptor; set-up: method as in PMID 6150989; details: vascular smooth muscle of male albino rabbits, displacement analysis; cited from earlier work
[2] = system: Saccharomyces cerevisiae (BY4741); assay: Yeast growth inhibition assay; assay type: cell-based; details: up to 50 µM, 24 h
Text: Each treatment was done in triplicate.

[3] = system: pdr1 Δ pdr3 Δ S. cerevisiae; assay: Yeast growth inhibition assay, double deletion strain; details: up to 50 µM, 24 h, PDR-attenuated strain
Protocol: The yeast S. cerevisiae (BY4741) cell culture was prepared by inoculating the microorganism in a 250 mL Erlenmeyer flask containing 50 mL YPD + HEPES medium, followed by incubation at 30 °C for 24–48 h. The assay was performed in a 96-well format. Each well except for the blank contained 100 μL of cell suspension with a final cell density of 5 × 10^4 cells/mL. […] The absorbance was read after a 24 h incubation. […] Nystatin was used as the positive control and DMSO served as the negative control. Each treatment was done in triplicate.

SSTR1 = SSTR1 (Homo sapiens, UniProt P30872); assay: PathHunter β-arrestin assay, positive allosteric modulation (PAM) mode; assay type: cell-based; details: dose-response, control agonist at EC20
Sequence of SSTR1 (P30872 whole entry): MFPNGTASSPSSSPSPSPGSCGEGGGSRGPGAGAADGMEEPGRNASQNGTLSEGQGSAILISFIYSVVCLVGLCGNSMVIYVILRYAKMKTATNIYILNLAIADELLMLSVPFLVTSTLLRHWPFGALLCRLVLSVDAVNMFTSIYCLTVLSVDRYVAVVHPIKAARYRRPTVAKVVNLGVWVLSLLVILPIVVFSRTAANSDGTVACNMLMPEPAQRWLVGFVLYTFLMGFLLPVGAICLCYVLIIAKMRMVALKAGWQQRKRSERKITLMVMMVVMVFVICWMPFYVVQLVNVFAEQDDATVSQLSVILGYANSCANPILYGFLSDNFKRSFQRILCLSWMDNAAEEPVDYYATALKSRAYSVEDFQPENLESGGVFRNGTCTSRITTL

CCR1 = molecular target: T1, CCR1 (Homo sapiens, UniProt P32246); assay: PathHunter β-arrestin assay, agonist mode; assay type: cell-based
T1 sequence (P32246 1-355): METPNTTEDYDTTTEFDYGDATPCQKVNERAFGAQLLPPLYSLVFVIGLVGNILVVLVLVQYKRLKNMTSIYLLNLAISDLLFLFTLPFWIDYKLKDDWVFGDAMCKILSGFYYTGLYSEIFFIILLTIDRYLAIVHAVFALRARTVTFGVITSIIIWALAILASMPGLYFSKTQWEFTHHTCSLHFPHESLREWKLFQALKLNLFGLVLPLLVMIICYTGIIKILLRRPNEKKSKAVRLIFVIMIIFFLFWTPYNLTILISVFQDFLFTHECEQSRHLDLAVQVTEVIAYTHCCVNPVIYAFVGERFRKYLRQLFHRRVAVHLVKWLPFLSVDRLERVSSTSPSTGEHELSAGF
Protocol: (§1) Aaptamine (20 µM) was profiled in gpcrMAX panel biosensor assays (in agonist and antagonist modes) against a panel of 168 GPCRs. The assay was performed by DiscoverX Corporation (Fremont, CA) using PathHunter β -arrestin enzyme fragment complementation (EFC) technology, in a similar way to that described elsewhere. The PathHunter cell lines were taken from freezer stocks according to standard procedures. A total of 20 µL of cells were seeded into white 384-well plates and incubated at 37 °C for the appropriate time prior to testing.
(§2) For agonist determination, aaptamine was incubated with PathHunter cell lines to induce a response. To increase the concentration, intermediate dilution from 20 µM of aaptamine was performed to generate a 5X sample in an assay buffer. Then, 5 µL of 5X sample was added to the plate with PathHunter cells and incubated for 90 or 180 min at 37 °C or room temperature. The percentage activity of aaptamine was calculated following this formula: % activity = 100% × (mean RLU of test sample − mean RLU of vehicle control)/(mean MAX control ligand − mean RLU of vehicle control).
(§3) Hit validation was performed by subjecting the aaptamine to an agonist, antagonist, and positive allosteric modulation (PAM) secondary screen utilizing thirteen GPCR biosensor assays (Arrestin) against the following targets: ADRA2A, ADRA2C, ADRB2, CCR1, CCR3, CXCR3, CXCR7, DRD2L, DRD2S, DRD4, HTR1E, OPRK1, and SSTR1. The assays were performed at 10-point concentrations using three-fold serial dilutions in duplicate. For all the assay formats, the final assay vehicle concentration was 1%.

[4] = molecular target: opioid receptor delta 1 (OPRD1) (Homo sapiens, UniProt P41143); assay: PathHunter β-arrestin assay, agonist mode; assay type: cell-based; details: 20 µM primary screen
Sequence of opioid receptor delta 1 (OPRD1) (P41143 whole entry): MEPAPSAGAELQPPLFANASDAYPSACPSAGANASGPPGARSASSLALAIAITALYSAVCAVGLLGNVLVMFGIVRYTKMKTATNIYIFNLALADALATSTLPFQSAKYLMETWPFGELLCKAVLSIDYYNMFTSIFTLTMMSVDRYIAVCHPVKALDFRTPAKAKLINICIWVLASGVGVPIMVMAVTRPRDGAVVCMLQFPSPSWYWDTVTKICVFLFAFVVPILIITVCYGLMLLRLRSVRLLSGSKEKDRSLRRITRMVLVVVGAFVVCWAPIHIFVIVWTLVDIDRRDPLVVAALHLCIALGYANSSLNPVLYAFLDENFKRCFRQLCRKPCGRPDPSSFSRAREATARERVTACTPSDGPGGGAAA
Protocol: as §1, §2

CCR3 = molecular target: T2, CCR3 (Homo sapiens, UniProt P51677); assay: PathHunter β-arrestin assay, positive allosteric modulation (PAM) mode; assay type: cell-based; details: control agonist at EC20
T2 sequence (P51677 1-355): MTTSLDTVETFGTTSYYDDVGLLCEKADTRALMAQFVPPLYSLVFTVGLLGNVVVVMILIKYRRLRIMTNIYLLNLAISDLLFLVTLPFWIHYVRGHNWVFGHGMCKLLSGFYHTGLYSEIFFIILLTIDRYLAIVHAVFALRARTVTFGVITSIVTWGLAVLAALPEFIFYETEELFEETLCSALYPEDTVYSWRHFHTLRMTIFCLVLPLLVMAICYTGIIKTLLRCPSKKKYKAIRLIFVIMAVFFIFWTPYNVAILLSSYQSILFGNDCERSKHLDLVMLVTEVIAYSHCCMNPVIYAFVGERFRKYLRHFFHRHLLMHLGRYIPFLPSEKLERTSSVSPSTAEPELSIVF
Protocol: as §3
(§4) For PAM assays, the cells were preincubated with the sample followed by agonist induction at the EC20 concentration. To the cells, 5 µL of 5X sample was added and incubated for 30 min at 37 °C or room temperature. Following the incubation period, 5 µL of the 6X EC20 agonist prepared in an assay buffer was added to the cells and incubated for 90 or 180 min at 37 °C or room temperature. The percent activity of aaptamine was calculated following this formula: % modulation = 100% × ((mean RLU of test sample − mean RLU of EC20 control)/(mean RLU of MAX control ligand − mean RLU of EC20 control)).

CXCR3 = molecular target: T3, CXCR3 (Homo sapiens, UniProt P49682); assay: as above; assay type: cell-based; details: control agonist at EC20
T3 sequence (P49682 1-368): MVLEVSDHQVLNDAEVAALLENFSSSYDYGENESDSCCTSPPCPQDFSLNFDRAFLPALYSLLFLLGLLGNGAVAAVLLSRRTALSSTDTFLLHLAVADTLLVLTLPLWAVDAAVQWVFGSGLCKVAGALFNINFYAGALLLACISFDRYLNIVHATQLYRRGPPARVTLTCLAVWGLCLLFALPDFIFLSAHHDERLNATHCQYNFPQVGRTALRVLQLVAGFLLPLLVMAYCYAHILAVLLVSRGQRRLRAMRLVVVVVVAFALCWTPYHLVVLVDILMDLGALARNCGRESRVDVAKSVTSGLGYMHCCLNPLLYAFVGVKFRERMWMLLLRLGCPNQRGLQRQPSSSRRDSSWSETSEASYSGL
Protocol: as §3, §4

HTR1E = HTR1E (Homo sapiens, UniProt P28566); assay: as above; assay type: cell-based; details: dose-response, control agonist at EC20
Sequence of HTR1E (P28566 whole entry): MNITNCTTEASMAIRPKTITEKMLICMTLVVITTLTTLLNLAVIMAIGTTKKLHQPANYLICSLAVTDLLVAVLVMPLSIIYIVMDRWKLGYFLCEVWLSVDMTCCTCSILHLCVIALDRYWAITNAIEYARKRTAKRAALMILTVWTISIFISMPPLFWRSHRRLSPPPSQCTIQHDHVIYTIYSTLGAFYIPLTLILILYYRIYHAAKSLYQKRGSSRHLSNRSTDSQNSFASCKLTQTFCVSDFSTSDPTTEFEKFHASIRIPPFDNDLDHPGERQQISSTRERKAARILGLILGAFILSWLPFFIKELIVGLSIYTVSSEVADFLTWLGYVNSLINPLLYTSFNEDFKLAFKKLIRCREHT

[5] = PAM mode, read-out: Dose-Response Maximal Response, % Activation
[6] = dose-response, read-out: EC50 (PAM)

For `COc1cc2ccnc3c2c(c1OC)NC=C3` [aaptamine], the EC50 [1] is listed as 5.1 µM, the “effective concentration, α-adrenoreceptor antagonism” value (α-adrenoreceptor) is listed as 30 µM and the growth inhibitory activity [2] is listed as “did not observe growth inhibitory activity”. The growth inhibitory activity [3] was “inactive”, the “validation of potentiator hit under PAM conditions” value (SSTR1) was “false positives; also recorded: did not validate” and the Emax (CCR1; dose-response analysis, read-out: Dose-Response Maximal Response, % Activation) was 50.2%. The EC50 (CCR1; dose-response, agonist mode) was 11.8 µM, the “agonistic activity in the β-arrestin assay” value [4] was “did not demonstrate significant agonistic activity” and the Emax (CCR3; [5]) was 33%. It also gave an EC50 (CCR3; [6]) of 16.2 µM, an Emax (CXCR3; [5]) of 74.6% and an EC50 (CXCR3; [6]) of 31.8 µM. The “validation of potentiator hit under PAM conditions” value (HTR1E) was “false positives; also recorded: did not validate”.
